In the NIST ThermoML archive (doi:10.1016/j.jct.2006.02.001):

Tests used:
[1] = refractive index (Na D-line) (dimensionless); xn = mol fraction of the nth substance listed; settings: 101 kPa, Liquid
[2] = xn = mol fraction of the nth substance listed; settings: 101 kPa, Liquid

COc1ccccc1 [anisole] + Cc1ccccc1
Settings	mass density, 288.15 K [kg/m3]	mass density, 293.15 K [kg/m3]	mass density, 298.15 K [kg/m3]	mass density, 303.15 K [kg/m3]	refractive index, 288.15 K	refractive index, 293.15 K	refractive index, 298.15 K	refractive index, 303.15 K
[1], x1 = 0.1179	–	–	–	–	1.503	1.4997	1.4971	1.4946
[1], x1 = 0.2098	–	–	–	–	1.5056	1.5017	1.4992	1.4966
[1], x1 = 0.3078	–	–	–	–	1.5083	1.5038	1.5012	1.4987
[1], x1 = 0.4082	–	–	–	–	1.511	1.5059	1.5033	1.5008
[1], x1 = 0.5157	–	–	–	–	1.5138	1.5081	1.5054	1.5029
[1], x1 = 0.6172	–	–	–	–	1.5163	1.5099	1.5061	1.5049
[1], x1 = 0.7286	–	–	–	–	1.5192	1.5122	1.5095	1.5071
[1], x1 = 0.8575	–	–	–	–	1.5223	1.5145	1.5118	1.5094
[1], x1 = 0.917	–	–	–	–	1.5236	1.5155	1.5135	1.5104
[1], x1 = 1	–	–	–	–	1.5256	1.5169	1.5141	1.5117
[2], x1 = 0.1179	887.1	882.58	877.96	873.25	–	–	–	–
[2], x1 = 0.2098	899.23	894.67	890.04	885.33	–	–	–	–
[2], x1 = 0.3078	912.01	907.42	902.81	898.06	–	–	–	–
[2], x1 = 0.4082	924.96	920.33	915.72	910.95	–	–	–	–
[2], x1 = 0.5157	938.67	934.03	929.43	924.67	–	–	–	–
[2], x1 = 0.6172	951.49	946.82	942.24	937.46	–	–	–	–
[2], x1 = 0.7286	965.32	960.65	956.15	951.37	–	–	–	–
[2], x1 = 0.8575	981.16	976.45	971.96	967.26	–	–	–	–
[2], x1 = 0.917	988.36	983.65	979.17	974.46	–	–	–	–
[2], x1 = 1	998.44	993.65	989.15	984.37	–	–	–	–

Cc1cccc(C)c1 [1,3-dimethylbenzene] + COc1ccccc1
x2 = 0
Settings	mass density, 288.15 K [kg/m3]	mass density, 293.15 K [kg/m3]	mass density, 298.15 K [kg/m3]	mass density, 303.15 K [kg/m3]	refractive index, 288.15 K	refractive index, 293.15 K	refractive index, 298.15 K	refractive index, 303.15 K
[1]	–	–	–	–	1.4997	1.4973	1.4944	1.4925
[2]	868.32	864.05	859.77	855.47	–	–	–	–

Cc1ccccc1C [1,2-dimethylbenzene] + COc1ccccc1
x2 = 0
Settings	mass density, 288.15 K [kg/m3]	mass density, 293.15 K [kg/m3]	mass density, 298.15 K [kg/m3]	mass density, 303.15 K [kg/m3]	refractive index, 288.15 K	refractive index, 293.15 K	refractive index, 298.15 K	refractive index, 303.15 K
[1]	–	–	–	–	1.5072	1.5047	1.5018	1.5
[2]	883.29	879.08	875.53	870.73	–	–	–	–

Cc1cc(C)cc(C)c1 [1,3,5-trimethylbenzene] + COc1ccccc1
Settings	mass density, 288.15 K [kg/m3]	mass density, 293.15 K [kg/m3]	mass density, 298.15 K [kg/m3]	mass density, 303.15 K [kg/m3]	refractive index, 288.15 K	refractive index, 293.15 K	refractive index, 298.15 K	refractive index, 303.15 K
[1], x2 = 0	–	–	–	–	1.5045	1.4993	1.4976	1.4948
[1], x2 = 0.1099	–	–	–	–	1.5063	1.5009	1.4991	1.4964
[1], x2 = 0.2441	–	–	–	–	1.5088	1.5029	1.5011	1.4984
[1], x2 = 0.3933	–	–	–	–	1.5116	1.5054	1.5033	1.5007
[1], x2 = 0.509	–	–	–	–	1.5142	1.5073	1.5052	1.5026
[1], x2 = 0.672	–	–	–	–	1.5175	1.5103	1.5079	1.5054
[1], x2 = 0.749	–	–	–	–	1.5193	1.5117	1.5093	1.5068
[1], x2 = 0.8397	–	–	–	–	1.5214	1.5136	1.511	1.5086
[1], x2 = 0.895	–	–	–	–	1.5228	1.5147	1.5121	1.5097
[1], x2 = 0.967	–	–	–	–	1.5247	1.5162	1.5135	1.5111
[2], x2 = 0	869.17	865.07	861.06	856.95	–	–	–	–
[2], x2 = 0.1099	880.36	876.24	872.21	868.07	–	–	–	–
[2], x2 = 0.2441	894.89	890.7	886.62	882.42	–	–	–	–
[2], x2 = 0.3933	912.23	907.95	903.79	899.5	–	–	–	–
[2], x2 = 0.509	926.57	922.2	917.98	913.64	–	–	–	–
[2], x2 = 0.672	948.28	943.8	939.52	935.05	–	–	–	–
[2], x2 = 0.749	959.22	954.69	950.34	945.87	–	–	–	–
[2], x2 = 0.8397	972.73	968.14	963.75	959.19	–	–	–	–
[2], x2 = 0.895	981.31	976.67	972.25	967.63	–	–	–	–
[2], x2 = 0.967	992.94	988.19	983.74	979.01	–	–	–	–

COc1ccccc1 [anisole] + Cc1ccc(C)cc1
Settings	mass density, 288.15 K [kg/m3]	mass density, 293.15 K [kg/m3]	mass density, 298.15 K [kg/m3]	mass density, 303.15 K [kg/m3]	refractive index, 288.15 K	refractive index, 293.15 K	refractive index, 298.15 K	refractive index, 303.15 K
[1], x1 = 0.0994	–	–	–	–	1.5007	1.4978	1.4949	1.4935
[1], x1 = 0.2471	–	–	–	–	1.5044	1.5006	1.4978	1.4963
[1], x1 = 0.3745	–	–	–	–	1.5077	1.5032	1.5004	1.4987
[1], x1 = 0.496	–	–	–	–	1.5109	1.5057	1.5029	1.5011
[1], x1 = 0.6455	–	–	–	–	1.5151	1.5089	1.5061	1.5042
[1], x1 = 0.7466	–	–	–	–	1.5179	1.5111	1.5084	1.5064
[1], x1 = 0.8972	–	–	–	–	1.5223	1.5145	1.5118	1.5097
[1], x1 = 0.949	–	–	–	–	1.5239	1.5157	1.5129	1.5107
[1], x1 = 0.9772	–	–	–	–	1.5248	1.5164	1.5136	1.5113
[1], x1 = 1	–	–	–	–	1.5256	1.5169	1.5141	1.5117
[2], x1 = 0.0994	877.53	873.32	869.02	864.71	–	–	–	–
[2], x1 = 0.2471	896.11	891.85	887.55	883.2	–	–	–	–
[2], x1 = 0.3745	912.51	908.14	903.84	899.38	–	–	–	–
[2], x1 = 0.496	928.51	924.05	919.74	915.2	–	–	–	–
[2], x1 = 0.6455	948.69	944.15	939.83	935.26	–	–	–	–
[2], x1 = 0.7466	962.63	958.06	953.71	949.14	–	–	–	–
[2], x1 = 0.8972	983.79	979.14	974.73	970.18	–	–	–	–
[2], x1 = 0.949	991.13	986.45	981.99	977.4	–	–	–	–
[2], x1 = 0.9772	995.17	990.43	985.95	981.34	–	–	–	–
[2], x1 = 1	998.44	993.65	989.15	984.37	–	–	–	–

Cc1ccccc1 [toluene] + COc1ccccc1
x2 = 0
Settings	mass density, 288.15 K [kg/m3]	mass density, 293.15 K [kg/m3]	mass density, 298.15 K [kg/m3]	mass density, 303.15 K [kg/m3]	refractive index, 288.15 K	refractive index, 293.15 K	refractive index, 298.15 K	refractive index, 303.15 K
[1]	–	–	–	–	1.4996	1.497	1.4944	1.4918
[2]	871.41	866.87	862.2	857.46	–	–	–	–
